Data: US20260262643A1, “HERBICIDAL BENZOXAZINES” (FMC CORPORATION, priority 2022, published 2026)

How the values were obtained:
barnyardgrass [1] = experiment: Test C preemergence; format: in vivo, Echinochloa crusgalli
How it was run: (§1)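 Visual injury score, 0–100 (100 = complete control), taken 10 days after treatment relative to untreated controls. Pre: directed spray onto soil over sown seeds. Post: foliar spray at one- to two-leaf stage, 2–10 cm. Solvent/surfactant formulation; loam–sand soil; greenhouse.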

blackgrass [2] = experiment: Test C preemergence; format: in vivo, Alopecurus myosuroides
How it was run: as §1

corn [3] = experiment: Test C preemergence; format: in vivo, Zea mays; conditions: Preemergence, 125 g ai/ha; 0 to 100 scale, 0 no effect, 100 complete control
How it was run: as §1

foxtail, giant [4] = experiment: Test C preemergence; format: in vivo, Setaria faberi
Source text: (§2) Seeds of plant species selected from barnyardgrass (Echinochloa crusgalli), blackgrass (Alopecurus myosuroides), corn (Zea mays), foxtail, giant (giant foxtail, Setaria faberi), green foxtail (Setaria viridis), goosegrass (Eleusine indica), kochia (Bassia scoparia), oat, wild (wild oat, Avena fatua), pigweed, palmer (palmer amaranth, palmer pigweed, Amaranthus palmeri), Pigweed, Redroot (redroot pigweed, Amaranthus retroflexus), ragweed (common ragweed, Ambrosia artemisiifolia), ryegrass, Italian ([…] ryegrass, Lolium multiflorum), soybean (Glycine max), and wheat (Triticum aestivum) were planted into a blend of loam soil and sand and treated preemergence with a directed soil spray using test chemicals formulated in a non-phytotoxic solvent mixture which included a surfactant. At the same time, plants selected from these crops and weed species and also galium (catchweed bedstraw, Galium aparine) and horseweed (Erigeron canadensis) were planted in pots containing the same blend of loam soil and sand and treated with postemergence applications of test chemicals formulated in the same manner. Plants ranged in height from 2 to 10 cm and were in the one- to two-leaf stage for the postemergence treatment. Treated plants and untreated controls were maintained in a greenhouse for 10 days, after which time all treated plants were compared to untreated controls and visually evaluated for injury. Plant response ratings, summarized in Table C, are based on a 0 to 100 scale where 0 is no effect and 100 is complete control. A dash (-) response means no test result.

kochia [5] = experiment: Test C preemergence; format: in vivo, Bassia scoparia
How it was run: as §1

oat, wild [6] = experiment: Test C preemergence; format: in vivo, Avena fatua
How it was run: as §1

pigweed, palmer [7] = experiment: Test C preemergence; format: in vivo, Amaranthus palmeri
How it was run: as §1

ragweed [8] = experiment: Test C preemergence; format: in vivo, Ambrosia artemisiifolia
How it was run: as §1

ryegrass, Italian [9] = experiment: Test C preemergence; format: in vivo, Lolium multiflorum
How it was run: as §1

soybean [10] = experiment: Test C preemergence; format: in vivo, Glycine max
How it was run: as §1

wheat [11] = experiment: Test C preemergence; format: in vivo, Triticum aestivum
How it was run: as §1

barnyardgrass [12] = experiment: Test C postemergence; format: in vivo, Echinochloa crusgalli; conditions: 10 days, 0 to 100 scale (0 no effect, 100 complete control)
How it was run: as §1

blackgrass [13] = experiment: Test C postemergence; format: in vivo, Alopecurus myosuroides; conditions: 10 days, 0 to 100 scale (0 no effect, 100 complete control)
How it was run: as §1

corn [14] = experiment: Test C postemergence; format: in vivo, Zea mays; conditions: 10 days, 0 to 100 scale (0 no effect, 100 complete control)
How it was run: as §1

foxtail, giant [15] = experiment: Test C postemergence; format: in vivo, Setaria faberi; conditions: 10 days, 0 to 100 scale (0 no effect, 100 complete control)
Source text: as §2

kochia [16] = experiment: Test C postemergence; format: in vivo, Bassia scoparia; conditions: 10 days, 0 to 100 scale (0 no effect, 100 complete control)
How it was run: as §1

oat, wild [17] = experiment: Test C postemergence; format: in vivo, Avena fatua; conditions: 10 days, 0 to 100 scale (0 no effect, 100 complete control)
How it was run: as §1

pigweed, palmer [18] = experiment: Test C postemergence; format: in vivo, Amaranthus palmeri; conditions: 10 days, 0 to 100 scale (0 no effect, 100 complete control)
How it was run: as §1

ragweed [19] = experiment: Test C postemergence; format: in vivo, Ambrosia artemisiifolia; conditions: 10 days, 0 to 100 scale (0 no effect, 100 complete control)
How it was run: as §1

ryegrass, Italian [20] = experiment: Test C postemergence; format: in vivo, Lolium multiflorum; conditions: 10 days, 0 to 100 scale (0 no effect, 100 complete control)
How it was run: as §1

soybean [21] = experiment: Test C postemergence; format: in vivo, Glycine max; conditions: 10 days, 0 to 100 scale (0 no effect, 100 complete control)
How it was run: as §1

wheat [22] = experiment: Test C postemergence; format: in vivo, Triticum aestivum; conditions: 10 days, 0 to 100 scale (0 no effect, 100 complete control)
How it was run: as §1

galium = experiment: Test C postemergence; format: in vivo, Galium aparine; conditions: 10 days, 0 to 100 scale (0 no effect, 100 complete control)
How it was run: as §1

horseweed = experiment: Test C postemergence; format: in vivo, Erigeron canadensis; conditions: 10 days, 0 to 100 scale (0 no effect, 100 complete control)
How it was run: as §1

barnyardgrass [23] = experiment: Test D flooded paddy test; format: in vivo, Echinochloa crus-galli; conditions: 250 g ai/ha, applied to paddy water, visual rating after 13 to 14 days, scale 0 to 100 (0 no effect, 100 complete control)
How it was run: (§3)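 Post-flood water application at the 2-leaf stage; 3 cm flood depth kept constant; visual control rating 0–100 after 13–14 days greenhouse growth.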

ducksalad = experiment: Test D flooded paddy test; format: in vivo, Heteranthera limosa; conditions: 250 g ai/ha, applied to paddy water, visual rating after 13 to 14 days, scale 0 to 100 (0 no effect, 100 complete control)
How it was run: as §3

rice = experiment: Test D flooded paddy test; format: in vivo, Oryza sativa; conditions: 250 g ai/ha, applied to paddy water, visual rating after 13 to 14 days, scale 0 to 100 (0 no effect, 100 complete control)
How it was run: as §3

sedge, umbrella = experiment: Test D flooded paddy test; format: in vivo, Cyperus difformis; conditions: 250 g ai/ha, applied to paddy water, visual rating after 13 to 14 days, scale 0 to 100 (0 no effect, 100 complete control)
How it was run: as §3

[24] = 500 g ai/ha, preemergence, 0 to 100 scale (0 no effect, 100 complete control)
[25] = Preemergence, 125 g ai/ha, 0 to 100 scale, 0 no effect, 100 complete control

## COc1ccc(-n2cnc(C3CC3)n2)cc1C(=O)N1C[C@H](C)Oc2c(Cl)cccc21 [Compound 324]
Barnyardgrass [1]; [24]
  Barnyardgrass plant response rating: 100
Barnyardgrass [1]; [25]
  Plant response rating, Barnyardgrass: 90
Blackgrass [2]; [24]
  Blackgrass plant response rating: 90
Blackgrass [2]; [25]
  Plant response rating, Blackgrass: 70
Corn [3]
  Plant response rating, Corn: 0
foxtail, giant [4]; [24]
  Foxtail, Giant plant response rating: 100
foxtail, giant [4]; [25]
  Plant response rating, Foxtail, Giant: 90
Kochia [5]; [24]
  Kochia plant response rating: 90
Kochia [5]; [25]
  Plant response rating, Kochia: 90
oat, wild [6]; [24]
  Oat, Wild plant response rating: 90
oat, wild [6]; [25]
  Plant response rating, Oat, Wild: 0
pigweed, palmer [7]; [24]
  Pigweed, Palmer plant response rating: 100
pigweed, palmer [7]; [25]
  Plant response rating, Pigweed, Palmer: 100
Ragweed [8]; [24]
  Ragweed plant response rating: 90
Ragweed [8]; [25]
  Plant response rating, Ragweed: 50
ryegrass, Italian [9]; [24]
  Ryegrass, Italian plant response rating: 100
ryegrass, Italian [9]; [25]
  Plant response rating, Ryegrass, Italian: 80
Soybean [10]; [24]
  Soybean plant response rating: 90
Soybean [10]; [25]
  Plant response rating, Soybean: 100
Wheat [11]; [24]
  Wheat plant response rating: 90
Wheat [11]; [25]
  Plant response rating, Wheat: 10
Barnyardgrass [12]; 500 g ai/ha, postemergence
  Plant response rating, Barnyardgrass: 80
Barnyardgrass [12]; Postemergence, 125 g ai/ha
  Plant response rating, Barnyardgrass: 50
Blackgrass [13]; 500 g ai/ha, postemergence
  Plant response rating, Blackgrass: 90
Blackgrass [13]; Postemergence, 125 g ai/ha
  Plant response rating, Blackgrass: 90
Corn [14]; 500 g ai/ha, postemergence
  Plant response rating, Corn: 90
Corn [14]; Postemergence, 125 g ai/ha
  Plant response rating, Corn: 70
foxtail, giant [15]; 500 g ai/ha, postemergence
  Plant response rating, Foxtail, Giant: 90
foxtail, giant [15]; Postemergence, 125 g ai/ha
  Plant response rating, Foxtail, Giant: 80
Kochia [16]; 500 g ai/ha, postemergence
  Plant response rating, Kochia: 100
Kochia [16]; Postemergence, 125 g ai/ha
  Plant response rating, Kochia: 90
oat, wild [17]; 500 g ai/ha, postemergence
  Plant response rating, Oat, Wild: 70
oat, wild [17]; Postemergence, 125 g ai/ha
  Plant response rating, Oat, Wild: 10
pigweed, palmer [18]; 500 g ai/ha, postemergence
  Plant response rating, Pigweed, Palmer: 100
pigweed, palmer [18]; Postemergence, 125 g ai/ha
  Plant response rating, Pigweed, Palmer: 90
Ragweed [19]; 500 g ai/ha, postemergence
  Plant response rating, Ragweed: 70
Ragweed [19]; Postemergence, 125 g ai/ha
  Plant response rating, Ragweed: 60
ryegrass, Italian [20]; 500 g ai/ha, postemergence
  Plant response rating, Ryegrass, Italian: 50
ryegrass, Italian [20]; Postemergence, 125 g ai/ha
  Plant response rating, Ryegrass, Italian: 40
Soybean [21]; 500 g ai/ha, postemergence
  Plant response rating, Soybean: 100
Soybean [21]; Postemergence, 125 g ai/ha
  Plant response rating, Soybean: 100
Wheat [22]; 500 g ai/ha, postemergence
  Plant response rating, Wheat: 30
Wheat [22]; Postemergence, 125 g ai/ha
  Plant response rating, Wheat: 30
galium; 500 g ai/ha, postemergence
  Plant response rating, Galium: 100
galium; Postemergence, 125 g ai/ha
  Plant response rating, Galium: 100
horseweed; 500 g ai/ha, postemergence
  Plant response rating, Horseweed: 80
horseweed; Postemergence, 125 g ai/ha
  Plant response rating, Horseweed: 60
Barnyardgrass [23]
  Plant response rating, Barnyardgrass (Flood): 40
ducksalad
  Plant response rating, Ducksalad (Flood): 80
rice
  Plant response rating, Rice (Flood): 10
sedge, umbrella
  Plant response rating, Sedge, Umbrella (Flood): 98
